Experimental data as given in PubChem BioAssay (NCI).
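Assay format: 96-well plates, 48-hour exposure. TGI: total growth inhibition.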

Key:
Assay in all cases: NCI tumour cell line growth inhibition, 48 h
[1] = tested on: OVCAR-4 ovarian
[2] = tested on: SNB-19 CNS
[3] = tested on: NCI-H460 lung
[4] = tested on: IGROV1 ovarian
[5] = tested on: UO-31 renal
[6] = tested on: SW-620 colon
[7] = tested on: SK-MEL-5 melanoma
[8] = tested on: LOX IMVI melanoma
[9] = tested on: U251 CNS
[10] = tested on: COLO 205 colon
[11] = tested on: OVCAR-3 ovarian
[12] = tested on: SK-MEL-28 melanoma
[13] = tested on: M19-MEL melanoma
[14] = tested on: HCT-116 colon
[15] = tested on: UACC-62 melanoma
[16] = tested on: DMS 114 small cell lung
[17] = tested on: SR leukemia
[18] = tested on: A498 renal
[19] = tested on: HOP-92 NSCLC
[20] = tested on: SF-539 CNS
[21] = tested on: DLD-1 colon
[22] = tested on: ACHN renal
[23] = tested on: MALME-3M melanoma
[24] = tested on: TK-10 renal
[25] = tested on: XF 498 CNS
[26] = tested on: KM12 colon
[27] = tested on: DMS 273 small cell lung
[28] = tested on: M14 melanoma
[29] = tested on: CCRF-CEM leukemia
[30] = tested on: SF-268 CNS
[31] = tested on: MOLT-4 leukemia
[32] = tested on: EKVX NSCLC
[33] = tested on: NCI-H226 lung
[34] = tested on: CAKI-1 renal
[35] = tested on: SNB-78 CNS
[36] = tested on: SNB-75 CNS
[37] = tested on: 786-0 renal
[38] = tested on: A549 NSCLC
[39] = tested on: OVCAR-8 ovarian
[40] = tested on: K-562 leukemia
[41] = tested on: NCI-H23 lung
[42] = tested on: UACC-257 melanoma
[43] = tested on: SK-MEL-2 melanoma
[44] = tested on: SF-295 CNS
[45] = tested on: LXFL 529 NSCLC
[46] = tested on: SK-OV-3 ovarian
[47] = tested on: HCT-15 colon
[48] = tested on: SN12C renal
[49] = tested on: KM20L2 colon
[50] = tested on: HCC-2998 colon
[51] = tested on: NCI-H522 lung
[52] = tested on: OVCAR-5 ovarian
[53] = tested on: RXF 393 renal
[54] = tested on: HL-60(TB) leukemia
[55] = tested on: RPMI-8226 leukemia
[56] = tested on: HT29 colon
[57] = tested on: HOP-62 NSCLC

Measured: TGI

O=C(O)C1Cc2[nH]c3ccccc3c2C2CCCC12 (centres undefined)
> 100 µM: [1] | [2] | [3] | [4] | [5] | [6] | [7] | [8] | [9] | [10] | [11] | [12] | [13] | [14] | [15] | [16] | [17] | [18] | [19] | [20] | [21] | [22] | [23] | [24] | [25] | [26] | [27] | [28] | [29] | [30] | [31] | [32] | [33] | [34] | [35] | [36] | [37] | [38] | [39] | [40] | [41] | [42] | [43] | [44] | [45] | [46] | [47] | [48] | [49] | [50] | [51] | [52]

C/C(CC(=O)Nc1cccc([N+](=O)[O-])c1)=N/NC(N)=S
> 100 µM: [3] | [4] | [5] | [6] | [53] | [7] | [8] | [9] | [10] | [11] | [12] | [13] | [14] | [15] | [16] | [54] | [19] | [20] | [21] | [22] | [23] | [24] | [26] | [28] | [29] | [30] | [31] | [32] | [33] | [36] | [37] | [38] | [39] | [55] | [56] | [40] | [41] | [42] | [43] | [44] | [45] | [57] | [46] | [49] | [50] | [51] | [52]
